In patent US8729269B2, “Substituted piperidino phenyloxazolidinones having antimicrobial activity with improved in vivo efficacy” (Wockhardt Limited, priority 2003, dated 2014):
≈ marks a conversion by molar mass, not a printed value.

How the values were obtained:
[1] = test system: Streptococcus pyogenes 801 (SPY 801); assay: Minimum Inhibitory Concentration (MIC) determination, agar with 5% sheep blood; format: cell-based; settings: Mueller Hinton agar containing 5% sheep blood
Experimental: (§1) Overnight grown cultures of Methicilin resistant Staphylococcus aureus 32 (MRSA 32), Methicilin resistant Staphylococcus epidermidis 118 (MRSE 118), Vancomycin resistant enterococci 303 (VRE 303) in Tryptic Soya broth were diluted in Mueller Hinton Broth to give optical density matching with MacFarland tube 0.5 standard. Cultures were further diluted 1:10 in Mueller Hinton broth. Using Denley's multipoint inoculator, 10^4 cells were deposited on Mueller Hinton agar (Difco) containing range of 2 fold dilutions of test compounds. These plates were incubated for 24 hrs at 35° C. and MIC results recorded. MIC is defined as minimum drug concentration that inhibits test organisms. For determining MIC of test compounds against Streptococcus pneumoniae 49619 (SPN 49619) and Streptococcus pyogenes 801 (SPY 801), Mueller Hinton agar containing 5% sheep blood was employed.

[2] = test system: Streptococcus pneumoniae 49619 (SPN 49619); assay: as above; format: cell-based; settings: Mueller Hinton agar containing 5% sheep blood
Experimental: as §1

[3] = test system: methicillin resistant Staphylococcus aureus strain MRSA 32; assay: Murine Assay Procedure (in vivo efficacy, MRSA 32 infection); settings: swiss mice infected intraperitoneally with MRSA 32, oral gavage 1 h after infection, repeat dose 3 hrs later, percentage survival on Day 7
Experimental: Oxazolidinone new chemical entities (NCEs) were evaluated for their in vivo efficacy in a murine infection caused by multi-drug resistant, methicillin resistant Staphylococcus aureus strain, referred to as MRSA 32, a clinical isolate obtained from a hospitalized patient. The procedure used for the murine assay is as follows:
Four weeks old swiss mice of 18-22 gm body weight were infected with MRSA 32 strain suspended in 5% Hog gastric mucin. The infecting dose of bacteria was set at 1-2×10^8 CFU/animal. The infecting dose was administered in 0.5 ml volume injected into peritonial cavity of mice. The treatment with oxazolidinone NCEs was started one hour after infection by administering 100-200 μl of the suspensions of oxazolidinone compounds in 5% Tween 80 by oral gavage. A repeat dose was similarly administered 3 hrs later. Each oxazolidinone NCE was tested at 2-3 different dosages in the range of 2.5 mg/kg to 20 mg/kg. In each dose group 6 mice were included. As an infection control group 12 mice were infected with MRSA 32 strain without giving any treatment. For compounds affording protection of MRSA infected mice, ED50 dosages were calculated on the basis of percentage survival on Day 7 after infection.

[4] = test system: Vancomycin resistant enterococci 303 (VRE 303); assay: Minimum Inhibitory Concentration (MIC) determination, agar dilution; format: cell-based; settings: Enterococcus, Mueller Hinton agar, 24 hrs at 35° C.
Experimental: as §1

[5] = test system: Methicilin resistant Staphylococcus epidermidis 118 (MRSE 118); assay: as above; format: cell-based; settings: Mueller Hinton agar, 24 hrs at 35° C.
Experimental: as §1

[6] = test system: Methicilin resistant Staphylococcus aureus 32 (MRSA 32); assay: as above; format: cell-based; settings: Mueller Hinton agar, 24 hrs at 35° C.
Experimental: as §1

Compound	MIC [1] [µg/mL]	MIC [2] [µg/mL]	MIC [4] [µg/mL]	MIC [5] [µg/mL]	MIC [6] [µg/mL]	ED50 [3] [mg/kg]
CS(=O)(=O)OC[C@H]1CN(c2cc(F)c(N3CCC(=O)CC3)c(F)c2)C(=O)O1 [Example 169, (R)—N-{3-[4-(4-oxo-piperidin-1-yl)-3,5-difluorophenyl]-2-oxo-oxazolidin-5-ylmethyl}-methanesulfonate]	2 (≈ 4.95 µM)	0.5 (≈ 1.24 µM)	1 (≈ 2.47 µM)	0.25 (≈ 0.618 µM)	0.5 (≈ 1.24 µM)	10
CC(=S)NC[C@H]1CN(c2ccc(N3CCC(C#N)(Nc4ccc(C#N)cc4)CC3)c(F)c2)C(=O)O1 [Example 87, (S)—N-{3-[4-(4-(1-(4-Cyanophenylamino))-4-cyanopiperidin-1-yl)-3-fluorophenyl]-2-oxo-oxazolidin-5-ylmethyl}-thioacetamide]	0.8 (≈ 1.62 µM)	0.8 (≈ 1.62 µM)	0.4 (≈ 0.812 µM)	0.5 (≈ 1.02 µM)	1 (≈ 2.03 µM)	10
CS(=O)(=O)OC[C@H]1CN(c2cc(F)c(N3CCC4(CC3)OCCO4)c(F)c2)C(=O)O1 [Example 146, (R)—N-{3-[4-(1,4-dioxa-8-aza-spiro[4.5]dec-8-yl)-3,5-difluorophenyl]-2-oxo-oxazolidin-5-ylmethyl}-methanesulfonate]	4 (≈ 8.92 µM)	4 (≈ 8.92 µM)	4 (≈ 8.92 µM)	2 (≈ 4.46 µM)	4 (≈ 8.92 µM)	2.5
CS(=O)(=O)OC[C@H]1CN(c2cc(F)c(N3CCC(O)CC3)c(F)c2)C(=O)O1 [Example 173, (R)—N-{3-[4-(4-hydroxy-piperidin-1-yl)-3,5-difluorophenyl]-2-oxo-oxazolidin-5-ylmethyl}-methanesulfonate]	4 (≈ 9.84 µM)	2 (≈ 4.92 µM)	4 (≈ 9.84 µM)	2 (≈ 4.92 µM)	2 (≈ 4.92 µM)	5
CC(=O)NC[C@H]1CN(c2cc(F)c(N3CCC(O)(CN=[N+]=[N-])CC3)c(F)c2)C(=O)O1 [Example 186, (S)—N-{3-[4-(4-Azidomethyl-4-hydroxypiperidin-1-yl)-3,5-difluorophenyl]-2-oxo-oxazolidin-5-ylmethyl}-acetamide]	1 (≈ 2.36 µM)	1 (≈ 2.36 µM)	2 (≈ 4.71 µM)	1 (≈ 2.36 µM)	2 (≈ 4.71 µM)	5

Continued, in another order:

MIC [1] [µg/mL]	MIC [2] [µg/mL]	MIC [4] [µg/mL]	MIC [5] [µg/mL]	MIC [6] [µg/mL]	Compound	ED50 [3] [mg/kg]
4 (≈ 9.72 µM)	2 (≈ 4.86 µM)	4 (≈ 9.72 µM)	0.5 (≈ 1.22 µM)	1 (≈ 2.43 µM)	CCOCC1(F)CCN(c2ccc(N3C[C@H](CNC(C)=O)OC3=O)cc2F)CC1 [Example 11, (S)—N-{3-[4-(4-Fluoro-4-ethoxymethylpiperidin-1-yl)-3-fluorophenyl]-2-oxo-oxazolidin-5-ylmethyl}-acetamide]	10
1 (≈ 2.59 µM)	1 (≈ 2.59 µM)	2 (≈ 5.18 µM)	1 (≈ 2.59 µM)	2 (≈ 5.18 µM)	CC(=O)NC[C@H]1CN(c2ccc(N3CCC4(CC3)C[C@H]4C#N)c(F)c2)C(=O)O1 [Example 98, (1R,5S)—N-{3-[4-(1-cyano-6-aza-spiro[2.5]oct-6-yl)-3-fluorophenyl]-2-oxo-oxazolidin-5-ylmethyl}-acetamide]	5
2 (≈ 5.22 µM)	2 (≈ 5.22 µM)	4 (≈ 10.4 µM)	0.5 (≈ 1.3 µM)	2 (≈ 5.22 µM)	CC(=O)NC[C@H]1CN(c2ccc(N3CCC(F)(CO)CC3)c(F)c2)C(=O)O1 [Example 9, (S)—N-{3-[4-(4-Fluoro-4-hydroxymethylpiperidin-1-yl)-3-fluorophenyl]-2-oxo-oxazolidin-5-ylmethyl}-acetamide]	5
2 (≈ 5.03 µM)	2 (≈ 5.03 µM)	1 (≈ 2.52 µM)	1 (≈ 2.52 µM)	2 (≈ 5.03 µM)	COCC1(F)CCN(c2ccc(N3C[C@H](CNC(C)=O)OC3=O)cc2F)CC1 [Example 10, (S)—N-{3-[4-(4-Fluoro-4-methoxymethylpiperidin-1-yl)-3-fluorophenyl]-2-oxo-oxazolidin-5-ylmethyl}-acetamide]	5
8 (≈ 21.3 µM)	4 (≈ 10.6 µM)	4 (≈ 10.6 µM)	0.5 (≈ 1.33 µM)	4 (≈ 10.6 µM)	CC(=O)NC[C@H]1CN(c2ccc(N3CCC(O)(C#N)CC3)c(F)c2)C(=O)O1 [Example 19, (S)—N-{3-[4-(4-Cyano-4-hydroxypiperidin-1-yl)-3-fluorophenyl]-2-oxo-oxazolidin-5-ylmethyl}-acetamide]	5
2 (≈ 5.39 µM)	2 (≈ 5.39 µM)	2 (≈ 5.39 µM)	1 (≈ 2.69 µM)	2 (≈ 5.39 µM)	CC(=O)NC[C@H]1CN(c2ccc(N3CCC(F)(F)CC3)c(F)c2)C(=O)O1 [Example 16, (S)—N-{3-[4-(4,4-Difluoropiperidin-1-yl)-3-fluorophenyl]-2-oxo-oxazolidin-5-ylmethyl}-acetamide]	5
